Experimental data: PMC10673369, “Preliminary SAR of Novel Pleuromutilin–Polyamine Conjugates” (Microorganisms, 2023)
≈ marks a conversion by molar mass, not a printed value. Where “and” joins values, the source holds several entries; their conditions need not be identical. Identical values can stand only once. Values belong to the compound of their own block, whether it stands above or below them.

What was measured:
[1] = test system: S. aureus ATCC 25923; assay: MIC, broth dilution, S. aureus; format: cell-based; conditions: Staphylococcus aureus, ATCC25923, mean (n = 3)
Protocol: (§1) The susceptibility of bacterial strains S. aureus (ATCC 25923), E. coli (ATCC 25922), and P. aeruginosa (ATCC 27853 or PAO1) to antibiotics and compounds was determined using reported protocols. Additional antimicrobial evaluation against MRSA (ATCC 43300), Klebsiella pneumoniae (ATCC 700603), A. baumannii (ATCC 19606), Candida albicans (ATCC 90028), and Cryptococcus neoformans (ATCC 208821) was undertaken at the Community for Open Antimicrobial Drug Discovery at The University of Queensland (Australia) according to their standard protocols as reported previously. […]
(§2) 2.3. Antimicrobial Assays
(§3) The susceptibility of bacterial strains S. aureus (ATCC 25923), E. coli (ATCC 25922), and P. aeruginosa (ATCC 27853 or PAO1) to antibiotics and compounds was determined in microplates using the standard broth dilution method in accordance with the recommendations of the Comité de l’AntibioGramme de la Société Française de Microbiologie (CA-SFM). Briefly, the minimal inhibitory concentrations (MICs) were determined with an inoculum of 10^5 CFU in 200 µL of Mueller–Hinton broth (MHB) containing two-fold serial dilutions of each drug. The MIC was defined as the lowest […]
(§4) determine all MICs, the measurements were independently repeated in triplicate. Additional antimicrobial evaluation against MRSA (ATCC 43300), Klebsiella pneumoniae (ATCC 700603), A. baumannii (ATCC 19606), Candida albicans (ATCC 90028), and Cryptococcus neoformans (ATCC 208821) was undertaken at the Community for Open Antimicrobial Drug Discovery at The University of Queensland (Australia) according to their standard protocols as reported previously. […]
(§5) For C. neoformans, resazurin was added at 0.006% final concentration to each well and incubated for a further 3 h before MICs were determined by measuring […]
(§6) Colistin and vancomycin were used as positive bacterial inhibitor standards for Gram-negative and Gram-positive bacteria, respectively. Fluconazole was used as a positive fungal inhibitor standard for C. albicans and C. neoformans. The antibiotics were provided in […], with 3 above and 3 below its MIC value, and plated into the first 8 wells of column 23 of the 384-well NBS plates. The quality control (QC) of the assays was determined by the antimicrobial controls and the Z'-factor (using positive and negative controls). Each plate was deemed to fulfil the quality criteria (pass QC) if the Z'- […]
(§7) inhibition at their highest concentration, and no growth inhibition at their lowest concentration.
(§8) 2.4. Determination of the MICs of Antibiotics in the Presence of Synergizing Compounds

[2] = test system: E. coli ATCC 25922; assay: MIC, broth dilution, E. coli; format: cell-based, Escherichia coli; conditions: Escherichia coli, ATCC25922, mean (n = 3)
Protocol: as §1, §2, §3, §4

[3] = test system: P. aeruginosa PAO1; assay: MIC, broth dilution, P. aeruginosa PAO1; format: cell-based; conditions: Pseudomonas aeruginosa, mean (n = 3)
Protocol: as §1, §2, §3, §4, §5, §6, §7, §8

[4] = test system: Staphylococcus aureus; parameters: method as in PMID 16589015, PMID 22070694, PMID 22191527; conditions: cited from earlier work
[5] = test system: Mycobacterium smegmatis; parameters: method as in PMID 16589015, PMID 22070694, PMID 22191527; conditions: cited from earlier work
[6] = test system: Escherichia coli; parameters: method as in PMID 16589015, PMID 22070694, PMID 22191527; conditions: cited from earlier work
[7] = test system: P. aeruginosa ATCC 27853; assay: MIC of antibiotic alone, P. aeruginosa ATCC 27853; format: cell-based
Protocol: as §1, §2, §3, §5

[8] = test system: C. albicans ATCC 90028; assay: MIC, CO-ADD antifungal assay, C. albicans; format: cell-based, Candida albicans; conditions: Candida albicans, ATCC90028, mean (n = 2)
Protocol: as §1, §2
(§9) The susceptibility of bacterial strains S. aureus (ATCC 25923), E. coli (ATCC 25922), and P. […]
(§10) baumannii (ATCC 19606), Candida albicans (ATCC 90028), and Cryptococcus neoformans (ATCC 208821) was undertaken at the Community for Open Antimicrobial Drug Discovery at The University of Queensland (Australia) according to their standard protocols as reported previously. […]
(§11) For the antifungal assay, fungi strains were cultured for 3 days on YPD agar at 30 °C. A yeast suspension of 1 × 106 to 5 × 10^6 CFU/mL was prepared from five colonies. These stock suspensions were diluted with yeast nitrogen base (YNB) (Becton Dickinson, 233520) broth to a final concentration of 2.5 × 10^3 CFU/mL. The compounds were serially diluted 2-fold across the wells of 96-well plates (Corning 3641, non-binding surface), with compound concentrations ranging from 0.015 to 64 µg/mL and final volumes of 50 µL, plated in duplicate. Then, 50 µL of the fungi suspension that was previously prepared in YNB broth to the final concentration of 2.5 × 10^3 CFU/mL was added to each well of the compound-containing plates, giving a final compound concentration range of 0.008 to 32 µg/mL. Plates were covered and incubated at 35 °C for 36 h without shaking. C. albicans MICs were determined by measuring the absorbance at OD530. For C. neoformans, resazurin was added at 0.006% final concentration to each well and incubated for a further 3 h before MICs were determined by measuring […]
as §6, §7, §8

[9] = test system: C. neoformans ATCC 208821; assay: MIC, CO-ADD antifungal assay, C. neoformans; format: cell-based, Cryptococcus neoformans; conditions: Cryptococcus neoformans, ATCC208821, mean (n = 2)
Protocol: as §1, §2, §9, §10, §11, §6, §7, §8

[10] = Cytotoxicity assay, HEK293; format: cell-based; conditions: human; HEK293 cells; mean (n = 2); read-out: Cytotoxicity (IC50), concentration of compound at 50% cytotoxicity
Protocol: Cytotoxicity assays were conducted using reported protocols (see Supplementary File). […]
HEK293 cells were counted manually in a Neubauer hemocytometer and plated at a density of 5,000 cells/well into each well of the 384-well plates containing the 25x (2 µL) concentrated compounds [26,27]. The medium used was Dulbecco's modified Eagle’s medium (DMEM), supplemented with 10% fetal bovine serum (FBS). Cells were incubated together with the compounds for 20 h at 37 °C, 5% CO2.
(§12) To measure cytotoxicity, 5 µL (equals 100 µM final) of resazurin was added to each well after incubation and incubated for further 3 h at 37 °C with 5% CO2. After the final incubation, fluorescence intensity […]
reader. CC50 values (concentration at 50% cytotoxicity) were calculated by normalizing the fluorescence readout, with 74 µg/mL tamoxifen as negative control (0%) and normal cell growth as positive control (100%). The concentration-dependent percentage cytotoxicity was fitted to a dose–response function (using Pipeline Pilot) and CC50 values were determined. […]

[11] = test system: MRSA ATCC 43300; assay: MIC, CO-ADD broth microdilution, MRSA; format: cell-based, methicillin-resistant S. aureus; conditions: Staphylococcus aureus, read-out: MIC MRSA
Protocol: as §1, §2, §9
baumannii (ATCC 19606), Candida albicans (ATCC 90028), and Cryptococcus neoformans (ATCC 208821) was undertaken at the Community for Open Antimicrobial Drug Discovery at The University of Queensland (Australia) according to their standard protocols as reported previously. For antimicrobial assays, the tested strains were cultured in either Luria broth (LB) (In Vitro Technologies, USB75852), nutrient broth (NB) (Becton Dickson, 234000), or MHB at 37 °C overnight. A sample of culture was then diluted 40-fold in fresh MHB and incubated at 37 °C for 1.5−2 h. The compounds were serially diluted 2-fold across the wells of 96-well plates (Corning 3641, non-binding surface), with compound concentrations ranging from 0.015 to 64 µg/ mL, and plated in duplicate. The resultant mid-log phase cultures were diluted to the final concentration of 1 × 10^6 CFU/mL; then, 50 µL was added to each well of the compound-containing plates, giving a final compound concentration range of 0.008 to 32 µg/mL and a cell density of 5 × 10^5 CFU/mL. All plates were then covered and incubated at 37 °C for 18 h. Resazurin was added at 0.001% final concentration to each well and incubated for 2 h before MICs […]
as §5, §6, §7, §8

[12] = parameters: method as in PMID 22070694, PMID 31480231; conditions: phase I clinical trials; cited from earlier work
[13] = test system: P. aeruginosa PAO1; assay: Nitrocefin hydrolysis assay (outer membrane permeabilization); format: cell-based; conditions: polymyxin B at 98.3 μM ([…])
Protocol: Nitrocefin assays were conducted using reported protocols (see Supplementary File).
We also examined the ability of 9e to act as membrane disruptor of the Gram-negative bacteria P. aeruginosa PAO1 (Figure 5), using a nitrocefin colorimetric assay. This assay makes use of a chromogenic cephalosporin derivative, which in the presence of an outer membrane disruptor gains entry to the periplasm, where upon the action of β-lactamases leads to substrate hydrolysis with a detectable color change from yellow to red.
Briefly, restoring enhancer concentrations were determined with an inoculum of 5x10^5 CFU in 200 µL of MHB containing two-fold serial dilutions of each derivative in the presence of doxycycline at 4.5 […]
The lowest concentration of the polyamine
These measurements were independently repeated in triplicate.
Outer membrane permeabilization was measured using nitrocefin as a chromogenic substrate of periplasmic β-lactamase. […] Nitrocefin hydrolysis was monitored spectrophotometrically by measuring the increase in absorbance at 490 nm. […]
HEK293 cells were counted manually in a Neubauer hemocytometer and plated at a density of 5,000 cells/well into each well of the 384-well plates containing the 25x (2 µL) concentrated compounds [26,27]. […]
as §12
reader. […] The concentration-dependent percentage cytotoxicity was fitted to a dose–response function (using Pipeline Pilot) and CC50 values were determined.
Human whole blood was washed three times with three volumes of 0.9% NaCl and then resuspended in the same solution to a concentration of 0.5 x 10^8 cells/mL, as determined by the manual cell count in a Neubauer hemocytometer. […] Hemolysis was determined by measuring the supernatant absorbance at […] (OD405). The absorbance was measured using a Tecan M1000 Pro monochromator plate reader. […]

MIC [1]: 3.12 µM | MIC [2]: 400 µM (≈ 151 µg/mL) | MIC [3]: 800 µM
Compound: C=C[C@]1(C)C[C@@H](OC(=O)CO)[C@]2(C)[C@H](C)CC[C@]3(CCC(=O)[C@H]32)[C@@H](C)[C@@H]1O [Compound 1, pleuromutilin]
Antibacterial activity against Staphylococcus aureus [4]: bactericidal activity | Antibacterial activity against Mycobacterium smegmatis [5]: moderate activity | Antibacterial activity against Escherichia coli [6]: no effect

Compound: O=C(N[C@H](CO)[C@H](O)c1ccc([N+](=O)[O-])cc1)C(Cl)Cl [chloramphenicol, reference compound]
MIC [1]: 1.5 to 3 µM

MIC of antibiotic alone [7]: 90 μM and 40 μg/mL
Compound: C[C@H]1c2cccc(O)c2C(=O)C2=C(O)[C@]3(O)C(=O)C(C(N)=O)=C(O)[C@@H](N(C)C)[C@@H]3[C@@H](O)[C@@H]21 [doxycycline]

Compound: OC(Cn1cncn1)(Cn1cncn1)c1ccc(F)cc1F [fluconazole, reference compound]
MIC [8]: 0.4 µM | MIC [9]: 26 µM

Compound: [H]/N=C(/N)N[C@H]1[C@H](O)[C@@H](O)[C@H](O[C@@H]2O[C@@H](C)[C@](O)(C=O)[C@H]2O[C@@H]2O[C@@H](CO)[C@H](O)[C@@H](O)[C@@H]2NC)[C@@H](N/C(N)=N\[H])[C@@H]1O [streptomycin, reference compound]
MIC [1]: 21.5 µM | MIC [2]: 21.5 µM (≈ 12.5 µg/mL) | MIC [3]: 21.5 µM

Compound: CC/C(=C(\c1ccccc1)c1ccc(OCCN(C)C)cc1)c1ccccc1 [tamoxifen, reference compound]
IC50 at 20 h [10]: 24 µM

Compound: CN[C@H](CC(C)C)C(=O)N[C@H]1C(=O)N[C@@H](CC(N)=O)C(=O)N[C@H]2C(=O)N[C@H]3C(=O)N[C@H](C(=O)N[C@H](C(=O)O)c4cc(O)cc(O)c4-c4cc3ccc4O)[C@H](O)c3ccc(c(Cl)c3)Oc3cc2cc(c3O[C@@H]2O[C@H](CO)[C@@H](O)[C@H](O)[C@H]2O[C@H]2C[C@](C)(N)[C@H](O)[C@H](C)O2)Oc2ccc(cc2Cl)[C@H]1O [vancomycin, reference compound]
MIC [11]: 0.7 µM

Compound: azamulin [Compound 4]
Bioavailability [12]: poor bioavailability

Compound: polymyxin B
Outer membrane perturbation (nitrocefin hydrolysis) [13]: potent ability to perturb the outer membrane
